Data published in patent publication US8933075B2, “Compounds useful as antiviral agents, compositions, and methods of use” (priority 2010, dated 2015).

tested on: A/Udorn/72 (H3N2) virus; assay: Plaque assay in MDCK cells: EC50 by reduction of plaque number; format: cell-based, influenza virus; details: MDCK

SMILES	EC50
COc1cccc(-c2cc(CCCCCO)c(/C=C3\SC(=S)N(C4CC5CCC4C5)C3=O)o2)c1 (stereo not drawn) [Compound 348]	< 100 nM
O=C1/C(=C/c2sc(-c3ccc(Cl)cc3)cc2-c2ccc(Cl)cc2)SC(=S)N1C1CC2CCC1C2 (stereo not drawn) [Compound 274]	< 100 nM
O=C1/C(=C/c2oc(-c3ccc(F)cc3)cc2CCCCO)SC(=S)N1C1CC2CCC1C2 (stereo not drawn) [Compound 115]	< 100 nM
O=C1/C(=C/c2oc(-c3cccc(Cl)c3)cc2CCCCCO)SC(=S)N1C1CC2CCC1C2 (stereo not drawn) [Compound 345]	< 100 nM
O=C1/C(=C/c2cc3cc(Br)ccc3[nH]2)SC(=S)N1C1C2CC3CC(C2)CC1C3 (stereo not drawn) [Compound 213, 3-adamantan-2-yl-5-(5-bromo-1H-indol-2-ylmethylene)-2-thioxo-thiazolidin-4-one]	< 100 nM
O=C1/C(=C/c2oc(-c3ccc(Cl)cc3)cc2CCCO)SC(=S)N1C1C2CC3CC(C2)CC1C3 (stereo not drawn) [Compound 100]	< 100 nM
O=C1/C(=C/c2ncc(-c3ccccc3)o2)SC(=S)N1C1CCCCCCC1 [Compound 66]	< 100 nM
O=C1/C(=C/c2sc(-c3cccc(Cl)c3)cc2C#CCCCO)SC(=S)N1C1C2CC3CC(C2)CC1C3 (stereo not drawn) [Compound 285]	< 100 nM
O=C1/C(=C/c2cc3ccccc3o2)SC(=S)N1C1C2CC3CC(C2)CC1C3 (stereo not drawn) [Compound 218, 3-adamantan-2-yl-5-benzofuran-2-ylmethylene-2-thioxo-thiazolidin-4-one]	< 100 nM
O=C1/C(=C/c2sc(-c3ccc(Cl)cc3)cc2CCCCCO)SC(=S)N1C1CC2CCC1C2 (stereo not drawn) [Compound 278]	< 100 nM
NCCCc1cc(-c2ccc(F)cc2)oc1/C=C1\SC(=S)N(C2CC3CCC2C3)C1=O (stereo not drawn) [Compound 127]	< 100 nM
O=C1/C(=C/c2ccc(Br)s2)SC(=S)N1C1C2CC3CC(C2)CC1C3 (stereo not drawn) [Compound 212]	< 100 nM
COc1cc(-c2ccc(/C=C3\SC(=S)N(C4CC5CCC4C5)C3=O)o2)ccc1O (stereo not drawn) [Compound 24]	< 100 nM
COc1cccc(-c2c(C#CCCCOC(=O)[C@H](CC(N)=O)NC(=O)OC(C)(C)C)cc(/C=C3\SC(=S)N(C4C5CC6CC(C5)CC4C6)C3=O)n2C)c1 (stereo partly drawn) [Compound 270]	< 100 nM
COc1ccc2oc(=O)c(CCC(=O)OCCCc3cc(-c4ccc(Cl)cc4)oc3/C=C3\SC(=S)N(C4CC5CCC4C5)C3=O)c(O)c2c1 (stereo not drawn) [Compound 336]	< 100 nM
COc1cccc(-c2cc(CCCCCO)c(/C=C3\SC(=S)N(C4C5CC6CC(C5)CC4C6)C3=O)n2C)c1 (stereo not drawn) [Compound 263]	250 to 1000 nM
COc1ccc(-c2ccc(/C=C3\SC(=S)N(C4CC5CCC4C5)C3=O)o2)cc1C(=O)N[C@@H](Cc1cnc[nH]1)C(=O)O (stereo partly drawn) [Compound 88]	< 100 nM
COc1cc(-c2ccc(/C=C3\SC(=S)N(C4C5CC6CC(C5)CC4C6)C3=O)o2)cc(OC)c1OC (stereo not drawn) [Compound 1]	< 100 nM
NCCCc1cc(-c2ccc(F)cc2)oc1/C=C1\SC(=S)N(C2C3CC4CC(C3)CC2C4)C1=O (stereo not drawn) [Compound 126]	< 100 nM
O=C1/C(=C/c2ccc(-c3c(O)c4ccc(O)cc4oc3=O)o2)SC(=S)N1C1CC2CCC1C2 (stereo not drawn) [Compound 324]	< 100 nM
Cn1c(/C=C2\SC(=S)N(C3CC4CCC3C4)C2=O)cc(C#CCCCOC(=O)[C@@H]2CC(=O)N(C(C)(C)C)C(=O)N2)c1-c1ccc(Cl)cc1 (stereo partly drawn) [Compound 273]	100 to 250 nM
O=C1/C(=C/c2oc(-c3ccc(Cl)cc3)cc2CCCCO)SC(=S)N1C1CC2CCC1C2 (stereo not drawn) [Compound 333]	< 100 nM

SMILES	EC50
O=C1/C(=C/c2cc(CCCO)c(-c3ccc(Cl)cc3)n2Cc2ccccc2)SC(=S)N1C1CC2CCC1C2 (stereo not drawn) [Compound 256]	< 100 nM
COc1cc(OCC(=O)N2CCC[C@H]2C(=O)O)cc(-c2cc(CCCO)c(/C=C3\SC(=S)N(C4CC5CCC4C5)C3=O)o2)c1 (stereo partly drawn) [Compound 350]	< 100 nM
COc1ccc(-c2ccc(/C=C3\SC(=S)N(C4CCCCC4)C3=O)o2)c(F)c1F [Compound 52]	< 100 nM
COc1cc(OC)cc(-c2cc(CCCOC(=O)[C@@H](N)c3ccccc3)c(/C=C3\SC(=S)N(C4CC5CCC4C5)C3=O)o2)c1 (stereo partly drawn) [Compound 154]	< 100 nM
O=C1/C(=C/c2oc(-c3cccc(Cl)c3)cc2CCCCCO)SC(=S)N1C1C2CC3CC(C2)CC1C3 (stereo not drawn) [Compound 346]	< 100 nM
COc1cc(OC)cc(-c2cc(CCCOC(=O)[C@H](CC(C)C)NC(=O)OCC3c4ccccc4-c4ccccc43)c(/C=C3\SC(=S)N(C4CC5CCC4C5)C3=O)o2)c1 (stereo partly drawn) [Compound 141]	250 to 1000 nM
O=C1/C(=C/c2oc(-c3cccc(F)c3)cc2CCCCCO)SC(=S)N1C1CC2CCC1C2 (stereo not drawn) [Compound 343]	< 100 nM
COc1ccc(-c2ccc(/C=C3\SC(=S)N(C4CC5CCC4C5)C3=O)o2)cc1O (stereo not drawn) [Compound 10]	< 100 nM
O=C1/C(=C/c2oc(-c3ccc(F)cc3)cc2CCCCCO)SC(=S)N1C1CC2CCC1C2 (stereo not drawn) [Compound 105]	< 100 nM
COC(=O)c1cc(-c2ccc(/C=C3\SC(=S)N(C4C5CC6CC(C5)CC4C6)C3=O)o2)ccc1OC (stereo not drawn) [Compound 13]	< 100 nM
O=C1/C(=C/c2cc(C#CCCCO)c(-c3ccc(Cl)cc3)s2)SC(=S)N1C1CC2CCC1C2 (stereo not drawn) [Compound 288]	< 100 nM
COc1ccc(-c2ccc(/C=C3\SC(=S)N(C4CC5CCC4C5)C3=O)o2)cc1OCC(=O)N[C@@H](CC(C)C)C(=O)O (stereo partly drawn) [Compound 78]	< 100 nM
Cn1c(-c2ccc(Cl)cc2)cc(CCCO)c1/C=C1\SC(=S)N(C2C3CC4CC(C3)CC2C4)C1=O (stereo not drawn) [Compound 259]	> 1000 nM
O=C1/C(=C/c2cn(-c3ccc([N+](=O)[O-])cc3)cn2)SC(=S)N1C1CCCCCC1 [Compound 63]	250 to 1000 nM
COc1ccc(-c2ccc(/C=C3\SC(=S)N(C4CC5CCC4C5)C3=O)o2)cc1C(=O)O (stereo not drawn) [Compound 36]	< 100 nM
CC(C)(C)OC(=O)N[C@@H](CC(N)=O)C(=O)OCCCC#Cc1cc(-c2cccc(Cl)c2)sc1/C=C1\SC(=S)N(C2CC3CCC2C3)C1=O (stereo partly drawn) [Compound 311]	< 100 nM
O=C1/C(=C/c2oc(-c3ccc(F)cc3)cc2CCCCO)SC(=S)N1C1C2CC3CC(C2)CC1C3 (stereo not drawn) [Compound 116]	< 100 nM
COc1ccc(-c2ccc(/C=C3\SC(=S)N(C4C5CC6CC(C5)CC4C6)C3=O)o2)cc1 (stereo not drawn) [Compound 9]	< 100 nM
COc1ccc2c(O)c(-c3ccc(/C=C4\SC(=S)N(C5CC6CCC5C6)C4=O)o3)c(=O)oc2c1OC (stereo not drawn) [Compound 71]	100 to 250 nM
O=C1/C(=C/c2ccc(-c3c(O)c4cc(O)ccc4oc3=O)o2)SC(=S)N1C1CC2CCC1C2 (stereo not drawn) [Compound 325]	< 100 nM
COc1ccc(-c2ccc(/C=C3\SC(=S)N(C4CC5CCC4C5)C3=O)o2)cc1C(=O)N1CCC[C@H]1C(=O)O (stereo partly drawn) [Compound 89]	< 100 nM
CC(C)(C)OC(=O)N[C@@H](CC(N)=O)C(=O)OCCCc1cc(-c2ccc(F)cc2)oc1/C=C1\SC(=S)N(C2CC3CCC2C3)C1=O (stereo partly drawn) [Compound 147]	< 100 nM

SMILES	EC50
CC(C)(C)N1C(=O)C[C@@H](C(=O)OCCCCCc2cc(-c3cccc(Cl)c3)sc2/C=C2\SC(=S)N(C3C4CC5CC(C4)CC3C5)C2=O)NC1=O (stereo partly drawn) [Compound 309]	< 100 nM
O=C1/C(=C/c2oc(-c3ccc(OC(F)(F)F)cc3)cc2CCCCCO)SC(=S)N1C1CC2CCC1C2 (stereo not drawn) [Compound 340]	< 100 nM
COCOc1cc(=O)oc2ccc(-c3ccc(/C=C4\SC(=S)N(C5CC6CCC5C6)C4=O)o3)cc12 (stereo not drawn) [Compound 76]	250 to 1000 nM
COc1cc(OC)cc(-c2cc(CCCOC(=O)[C@H](Cc3ccccc3)NC(=O)OC(C)(C)C)c(/C=C3\SC(=S)N(C4CC5CCC4C5)C3=O)o2)c1 (stereo partly drawn) [Compound 142]	< 100 nM
O=C1/C(=C/c2ccc(-c3ccc(O)cc3)o2)SC(=S)N1C1C2CC3CC(C2)CC1C3 (stereo not drawn) [Compound 15]	< 100 nM
COc1cc(OC)cc(-c2cc(CCCCCCO)c(/C=C3\SC(=S)N(C4CC5CCC4C5)C3=O)o2)c1 (stereo not drawn) [Compound 111]	< 100 nM
COc1cccc(-c2c(C#CCCCO)cc(/C=C3\SC(=S)N(C4CC5CCC4C5)C3=O)n2C)c1 (stereo not drawn) [Compound 266]	< 100 nM
CC(C)(C)N1C(=O)C[C@@H](C(=O)OCCCCCc2cc(-c3ccc(Cl)cc3)[nH]c2/C=C2\SC(=S)N(C3C4CC5CC(C4)CC3C5)C2=O)NC1=O (stereo partly drawn) [Compound 251]	< 100 nM
CC(C)(C)OC(=O)N[C@@H](CC(N)=O)C(=O)N1CCN(CCCCCc2cc(-c3ccc(Cl)cc3)oc2/C=C2\SC(=S)N(C3C4CC5CC(C4)CC3C5)C2=O)CC1 (stereo partly drawn) [Compound 373]	< 100 nM
CCOc1ccc(F)c(F)c1-c1ccc(/C=C2\SC(=S)N(C3CCCC3)C2=O)o1 [Compound 50]	< 100 nM
COc1ccc2c(O)c(-c3ccc(-c4ccc(/C=C5\SC(=S)N(C6CC7CCC6C7)C5=O)o4)cc3)c(=O)oc2c1 (stereo not drawn) [Compound 227]	< 100 nM
COc1cc(O)cc(-c2cc(CCCC(C(=O)O)C(=O)O)c(/C=C3\SC(=S)N(C4C5CC6CC(C5)CC4C6)C3=O)o2)c1 (stereo not drawn) [Compound 136]	100 to 250 nM
CC(C)(C)OC(=O)N[C@@H](CC(N)=O)C(=O)OCCCCCc1cc(-c2ccc(Cl)cc2)[nH]c1/C=C1\SC(=S)N(C2C3CC4CC(C3)CC2C4)C1=O (stereo partly drawn) [Compound 254]	< 100 nM
O=C1/C(=C/c2oc(-c3ccc(C(F)(F)F)cc3)cc2CCCCCO)SC(=S)N1C1C2CC3CC(C2)CC1C3 (stereo not drawn) [Compound 338]	< 100 nM
O=C1/C(=C/c2cc3ccccc3o2)SC(=S)N1C1CC2CCC1C2 (stereo not drawn) [Compound 217]	< 100 nM
COCOc1cc(=O)oc2ccc(-c3ccc(/C=C4\SC(=S)N(C5C6CC7CC(C6)CC5C7)C4=O)o3)cc12 (stereo not drawn) [Compound 75]	250 to 1000 nM
COc1cc(OC)cc(-c2cc(CCCCOC(=O)[C@]3(O)C[C@@H](O)[C@@H](O)[C@H](O)C3)c(/C=C3\SC(=S)N(C4CC5CCC4C5)C3=O)o2)c1 (stereo partly drawn) [Compound 357]	< 100 nM
COc1cc(OCC(=O)OC(C)(C)C)cc(-c2ccc(/C=C3\SC(=S)N(C4CC5CCC4C5)C3=O)o2)c1 (stereo not drawn) [Compound 39]	< 100 nM
O=C1/C(=C/c2ccco2)SC(=S)N1C1CCCCCC1 [Compound 219, (Z)-3-cycloheptyl-5-(furan-2-ylmethylene)-2-thioxothiazolidin-4-one]	250 to 1000 nM
COc1cc(OC)cc(-c2cc(CCCN3CCNCC3)c(/C=C3\SC(=S)N(C4C5CC6CC(C5)CC4C6)C3=O)o2)c1 (stereo not drawn) [Compound 190]	< 100 nM
O=C(O)c1ccc(-c2ccc(/C=C3\SC(=S)N(C4CC5CCC4C5)C3=O)o2)cc1 (stereo not drawn) [Compound 4]	< 100 nM
O=C1/C(=C/c2oc(-c3ccc(F)cc3)cc2CCCCCCO)SC(=S)N1C1C2CC3CC(C2)CC1C3 (stereo not drawn) [Compound 108]	< 100 nM
